Test results taken from PMC1716192, “A Plant-Derived Morphinan as a Novel Lead Compound Active against Malaria Liver Stages” (PLoS Medicine, 2006).

Test system: P. yoelii liver stage parasites (18S rRNA)
Test: Real-time PCR quantification of P. yoelii parasites in mouse livers
Type: in vivo, Swiss mice
Settings: 42 h PI
Method: Female 6-wk-old Swiss mice weighing 24–31 g were randomly allotted to three groups. The drug to be tested was administrated orally on days −1, 0, and +1. Group 1 received 100 mg/kg/d of NCP-tazopsine (n = 4), group 2 received 200 mg/kg/d of NCP-tazopsine (n = 6), whereas the control group received Tween 80 at 10% in sterile water (n = 5). Mice were challenged on day 0 by retro-orbital injection with 120,000 P. yoelii sporozoites and sacrificed 42-h postinoculation. A piece of liver (0.2 g) was harvested and total RNA extracted using the Micro to Midi kit (Invitrogen) according to the manufacturer's instructions. The detection and quantification of liver stage parasites were done as described with minor modifications. Five micrograms of total RNA were treated with DNase from the Turbo DNA-free kit (Ambion, Huntingdon, United Kingdom) and reverse transcribed by Superscript II (Invitrogen) according to the manufacturer's instructions. A total of 6 μl of the 300 μl obtained (an equivalent to 100 ng of the starting total RNA) were used per TaqMan PCR assay (MX4000 multiplex quantitative PCR system; Stratagene, La Jolla, California, United States). […] Lack of nonspecific amplification with mouse genomic DNA was determined in preliminary experiment (unpublished data). […] Absolute transcript copy number for each gene was calculated based on their external standard curves. […]

## COC1=C2[C@@H]3[C@H](O)c4ccc(OC)c(O)c4[C@]2(CCN3C2CCCC2)C[C@H](O)[C@@H]1O [NCP-tazopsine, N-cyclopentyl-tazopsine]
Fully protective dose (200 mg/kg/d oral), 120,000 sporozoites
  reduction of liver parasite load versus controls: 99.98%
Suboptimal dose (100 mg/kg/d oral), 120,000 sporozoites
  reduction of liver parasite load versus controls: 98.58%
